Assay results: ChEMBL document CHEMBL3797052 (Eur J Med Chem, 2016)

System: not listed separately
Assay: Cytotoxicity against human HCT116 cells assessed as growth inhibition at 100 uM after 2 days by MTT assay
Assay type: functional
Conditions: HCT-116, 48 h, read-out: GI

Structure (SMILES) | inhibition of growth at 100 µM [%]
CNC(=O)c1cc(Oc2ccc3nc(NC(=O)c4ccc5ncccc5c4)sc3c2)ccn1 | 72.3

System: not listed separately
Assay: Cytotoxicity against human HCT116 cells assessed as growth inhibition at 10 uM after 2 days by MTT assay
Assay type: functional
Conditions: HCT-116, 48 h, read-out: GI

Structure (SMILES) | inhibition of growth at 10 µM [%]
CNC(=O)c1cc(Oc2ccc3nc(NC(=O)c4ccc5ncccc5c4)sc3c2)ccn1 | 22.5

System: not listed separately
Assay: Cytotoxicity against human SKBR3 cells assessed as growth inhibition at 100 uM after 2 days by MTT assay
Assay type: functional
Conditions: SK-BR-3, 48 h, read-out: GI

Structure (SMILES) | inhibition of growth at 100 µM [%]
CNC(=O)c1cc(Oc2ccc3nc(NC(=O)c4ccc5ncccc5c4)sc3c2)ccn1 | 29.6

System: not listed separately
Assay: Cytotoxicity against human SKBR3 cells assessed as growth inhibition at 10 uM after 2 days by MTT assay
Assay type: functional
Conditions: SK-BR-3, 48 h, read-out: GI

Structure (SMILES) | inhibition of growth at 10 µM [%]
CNC(=O)c1cc(Oc2ccc3nc(NC(=O)c4ccc5ncccc5c4)sc3c2)ccn1 | 17.1

System: not listed separately
Assay: Antiproliferative activity against human MOLT4 cells assessed as cell growth at 10^-5 M after 48 hrs by sulforhodamine B assay
Assay type: functional
Conditions: MOLT-4, 48 h, read-out: Activity

Structure (SMILES) | growth at 10 µM [%]
CNC(=O)c1cc(Oc2ccc3nc(NC(=O)c4ccc5ncccc5c4)sc3c2)ccn1 | 94.2

System: not listed separately
Assay: Antiproliferative activity against human RPMI8226 cells assessed as cell growth at 10^-5 M after 48 hrs by sulforhodamine B assay
Assay type: functional
Conditions: RPMI-8226, 48 h, read-out: Activity

Structure (SMILES) | growth at 10 µM [%]
CNC(=O)c1cc(Oc2ccc3nc(NC(=O)c4ccc5ncccc5c4)sc3c2)ccn1 | 71.9

System: A549
Assay: Antiproliferative activity against human A549/ATCC cells assessed as cell growth at 10^-5 M after 48 hrs by sulforhodamine B assay
Assay type: functional
Conditions: A549, 48 h, read-out: Activity

Structure (SMILES) | growth at 10 µM [%]
CNC(=O)c1cc(Oc2ccc3nc(NC(=O)c4ccc5ncccc5c4)sc3c2)ccn1 | 76.5

System: not listed separately
Assay: Antiproliferative activity against human HOP62 cells assessed as cell growth at 10^-5 M after 48 hrs by sulforhodamine B assay
Assay type: functional
Conditions: HOP-62, 48 h, read-out: Activity

Structure (SMILES) | growth at 10 µM [%]
CNC(=O)c1cc(Oc2ccc3nc(NC(=O)c4ccc5ncccc5c4)sc3c2)ccn1 | 112

System: not listed separately
Assay: Antiproliferative activity against human HOP92 cells assessed as cell growth at 10^-5 M after 48 hrs by sulforhodamine B assay
Assay type: functional
Conditions: HOP-92, 48 h, read-out: Activity

Structure (SMILES) | growth at 10 µM [%]
CNC(=O)c1cc(Oc2ccc3nc(NC(=O)c4ccc5ncccc5c4)sc3c2)ccn1 | 110

System: NCI-H226
Assay: Antiproliferative activity against human NCI-H226 cells assessed as cell growth at 10^-5 M after 48 hrs by sulforhodamine B assay
Assay type: functional
Conditions: NCI-H226, 48 h, read-out: Activity

Structure (SMILES) | growth at 10 µM [%]
CNC(=O)c1cc(Oc2ccc3nc(NC(=O)c4ccc5ncccc5c4)sc3c2)ccn1 | 68.6

System: NCI-H460
Assay: Antiproliferative activity against human NCI-H460 cells assessed as cell growth at 10^-5 M after 48 hrs by sulforhodamine B assay
Assay type: functional
Conditions: NCI-H460, 48 h, read-out: Activity

Structure (SMILES) | growth at 10 µM [%]
CNC(=O)c1cc(Oc2ccc3nc(NC(=O)c4ccc5ncccc5c4)sc3c2)ccn1 | 98.6

System: NCI-H522
Assay: Antiproliferative activity against human NCI-H522 cells assessed as cell growth at 10^-5 M after 48 hrs by sulforhodamine B assay
Assay type: functional
Conditions: NCI-H522, 48 h, read-out: Activity

Structure (SMILES) | growth at 10 µM [%]
CNC(=O)c1cc(Oc2ccc3nc(NC(=O)c4ccc5ncccc5c4)sc3c2)ccn1 | 54.3

System: not listed separately
Assay: Antiproliferative activity against human COLO205 cells assessed as cell growth at 10^-5 M after 48 hrs by sulforhodamine B assay
Assay type: functional
Conditions: COLO 205, 48 h, read-out: Activity

Structure (SMILES) | growth at 10 µM [%]
CNC(=O)c1cc(Oc2ccc3nc(NC(=O)c4ccc5ncccc5c4)sc3c2)ccn1 | 95.8

System: not listed separately
Assay: Antiproliferative activity against human HCT15 cells assessed as cell growth at 10^-5 M after 48 hrs by sulforhodamine B assay
Assay type: functional
Conditions: HCT-15, 48 h, read-out: Activity

Structure (SMILES) | growth at 10 µM [%]
CNC(=O)c1cc(Oc2ccc3nc(NC(=O)c4ccc5ncccc5c4)sc3c2)ccn1 | 91.1

System: KM12
Assay: Antiproliferative activity against human KM12 cells assessed as cell growth at 10^-5 M after 48 hrs by sulforhodamine B assay
Assay type: functional
Conditions: KM12, 48 h, read-out: Activity

Structure (SMILES) | growth at 10 µM [%]
CNC(=O)c1cc(Oc2ccc3nc(NC(=O)c4ccc5ncccc5c4)sc3c2)ccn1 | 101

System: not listed separately
Assay: Antiproliferative activity against human SNB75 cells assessed as cell growth at 10^-5 M after 48 hrs by sulforhodamine B assay
Assay type: functional
Conditions: SNB-75, 48 h, read-out: Activity

Structure (SMILES) | growth at 10 µM [%]
CNC(=O)c1cc(Oc2ccc3nc(NC(=O)c4ccc5ncccc5c4)sc3c2)ccn1 | 86.5

System: Malme-3M
Assay: Antiproliferative activity against human MALME-3M cells assessed as cell growth at 10^-5 M after 48 hrs by sulforhodamine B assay
Assay type: functional
Conditions: read-out: Activity

Structure (SMILES) | growth at 10 µM [%]
CNC(=O)c1cc(Oc2ccc3nc(NC(=O)c4ccc5ncccc5c4)sc3c2)ccn1 | 80.5

System: M14
Assay: Antiproliferative activity against human M14 cells assessed as cell growth at 10^-5 M after 48 hrs by sulforhodamine B assay
Assay type: functional
Conditions: M14, 48 h, read-out: Activity

Structure (SMILES) | growth at 10 µM [%]
CNC(=O)c1cc(Oc2ccc3nc(NC(=O)c4ccc5ncccc5c4)sc3c2)ccn1 | 102
